In patent US7999069B2, “EphB receptor-binding peptides” (Sanford-Burnham Medical Research Institute, priority 2005, dated 2011):
Several values for one entry are separate records, joined by “and”; a condition that tells them apart may be missing. Equal values may be shown once. Read-outs that look alike come from different tables or passages of the source. One block for each compound: values may come before it. No end group written: not given here.

Tests used:
[1] = biological target: T1, EphB4 (Homo sapiens, UniProt P54760); assay: Inhibition of ephrin-B2 AP binding to immobilized EphB4 ectodomain
T1 construct: panned on the ectodomains of EphB1, EphB2, or EphB4 fused to human Fc
T1 sequence (P54760 16-539 limits assumed): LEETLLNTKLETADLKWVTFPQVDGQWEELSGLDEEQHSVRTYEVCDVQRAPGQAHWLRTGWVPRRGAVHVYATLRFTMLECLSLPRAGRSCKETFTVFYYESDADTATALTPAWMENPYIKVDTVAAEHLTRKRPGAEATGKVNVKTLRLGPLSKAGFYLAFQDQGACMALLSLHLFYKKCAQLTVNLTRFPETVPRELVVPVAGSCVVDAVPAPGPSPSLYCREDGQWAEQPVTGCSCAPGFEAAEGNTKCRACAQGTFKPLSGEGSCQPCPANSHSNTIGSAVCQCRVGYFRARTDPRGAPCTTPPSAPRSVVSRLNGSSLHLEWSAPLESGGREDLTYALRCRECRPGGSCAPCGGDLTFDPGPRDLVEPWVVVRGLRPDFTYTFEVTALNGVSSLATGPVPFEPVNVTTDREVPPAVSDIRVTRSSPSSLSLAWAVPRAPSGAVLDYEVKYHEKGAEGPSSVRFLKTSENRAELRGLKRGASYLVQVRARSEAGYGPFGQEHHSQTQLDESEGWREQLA
Description: Peptides that bind to the same receptor region as the ephrins would be expected to inhibit Eph receptor-ephrin association, if they interact with sufficient affinity. A number of synthetic peptides were tested for their ability to inhibit binding of alkaline phosphatase-tagged ephrin-B2 (ephrin-B2-AP) to EphB receptors (FIG. 3). Most of the peptides were synthesized with a biotin tag and immobilized on streptavidin plates to verify their ability to capture the EphB ectodomains used for their isolation.
Ephrin-B2 AP binding to the indicated immobilized EphB receptor ectodomains was measured in the presence of the indicated peptides and detected by measuring alkaline phosphatase activity. […]. […] Wells coated with the different EphB ectodomains were incubated with ephrin-B2 AP and 50 μM of the indicated peptides. Ephrin-B2 AP binding in the presence of peptide was normalized to binding in the absence of peptide. All peptides were biotinylated except for FSPQ and EWYM. […] Therefore, IPWT was not used for further experiments. The EWYM, TWO, and FSPQ peptides were not synthesized with a biotin tag and therefore were tested directly for inhibition of ephrin-B2 binding. The EWLS, SNEW, and TNYL peptides were selective because they antagonized ephrin binding to only one EphB receptor (FIGS. 3B, D, and F).
The GP motif aligns with the GP motif of TNYL and the RAW motif aligns precisely next to the last amino acid of TNYL. […] For competition assays between peptides and ephrin-B2 alkaline phosphatase fusion protein (ephrin-B2 AP), the concentration of ephrin-B2 AP used was adjusted to obtain similar signals with different EphB receptors (0.135-1.45 OD min^−1ml^−1). Ephrin-B2 AP was co-incubated for 1 hr with different peptide concentrations in Ni-NTA wells coated with 1 μg/ml Eph receptor Fc. After several washes, the amount of ephrin-B2-AP bound was quantified using p-nitrophenylphosphate as a substrate. Alkaline phosphatase activity from wells without EphB Fc was subtracted as background. […] […]. In these experiments, the two peptides are not biotinylated. […] Ephrin-B2-AP binding in the presence of peptide was normalized to binding in the absence of peptide in (A) and (B). […] Endogenous EphB4 was immunoprecipitated from MCF7 breast cancer cells after stimulation with ephrin-B2 Fc, or Fc as a control, and probed by immunoblotting with anti-phosphotyrosine antibodies (PTyr). […] The filters were reprobed with EphB4 antibodies to confirm equal amounts of immunoprecipitated receptor.

[2] = biological target: T2, EphB4 (Homo sapiens, UniProt P54760); assay: Peptide pull-down of EphB4 from MCF7 or transfected 293T cells; format: binding
T2 construct: MCF-7 human breast cancer cells, which endogenously express EphB4; endogenous in cells; host or cells: MCF7
T2 sequence (P54760 16-987): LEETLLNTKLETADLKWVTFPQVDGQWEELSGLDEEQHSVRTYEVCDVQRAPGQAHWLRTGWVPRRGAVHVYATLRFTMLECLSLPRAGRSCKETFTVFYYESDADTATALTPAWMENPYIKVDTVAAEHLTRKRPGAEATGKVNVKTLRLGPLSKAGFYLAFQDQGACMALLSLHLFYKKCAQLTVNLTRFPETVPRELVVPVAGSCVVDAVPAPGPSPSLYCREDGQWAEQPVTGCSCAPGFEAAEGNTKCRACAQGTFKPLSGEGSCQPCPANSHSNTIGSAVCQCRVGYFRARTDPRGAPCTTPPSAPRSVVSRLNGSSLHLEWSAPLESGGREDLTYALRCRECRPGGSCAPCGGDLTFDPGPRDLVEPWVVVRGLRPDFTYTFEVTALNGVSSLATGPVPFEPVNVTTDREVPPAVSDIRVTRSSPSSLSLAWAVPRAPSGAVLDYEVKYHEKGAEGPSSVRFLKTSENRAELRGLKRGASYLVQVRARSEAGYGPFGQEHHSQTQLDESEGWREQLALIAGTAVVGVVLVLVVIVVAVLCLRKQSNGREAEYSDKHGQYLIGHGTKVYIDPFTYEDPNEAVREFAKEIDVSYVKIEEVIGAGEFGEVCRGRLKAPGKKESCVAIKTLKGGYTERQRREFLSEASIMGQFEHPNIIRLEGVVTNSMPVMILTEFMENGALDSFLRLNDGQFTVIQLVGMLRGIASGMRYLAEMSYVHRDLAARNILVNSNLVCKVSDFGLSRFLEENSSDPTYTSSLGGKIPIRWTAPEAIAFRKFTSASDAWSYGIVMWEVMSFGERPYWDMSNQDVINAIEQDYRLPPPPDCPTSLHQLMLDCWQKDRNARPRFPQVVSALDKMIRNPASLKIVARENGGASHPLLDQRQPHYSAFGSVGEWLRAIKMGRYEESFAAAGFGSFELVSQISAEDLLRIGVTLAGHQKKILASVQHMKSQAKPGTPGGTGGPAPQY
Description: The ability of the peptides to bind in a stable manner, which is important for both targeting and competitive inhibition, was tested in pull-down experiments. For peptide pull-down experiments, cells in 60 cm plates at 70% confluency or adult mouse brain tissue were solubilized in pull-down buffer (50 mM HEPES pH 7.5, 150 mM NaCl, 10% glycerol, 1% Triton-X100, 5 mM KCl and 1 mM EDTA). Three μg of biotinylated peptide were incubated for 45-90 min with 5 μl streptavidin agarose beads (Sigma), unbound peptide was washed away, and the beads were incubated with the cell lysates for 45-90 min. Proteins bound to the beads were separated by SDS-polyacrylamide gel electrophoresis and probed by immunoblotting with EphB1, EphB2, or EphB4 antibodies. The EphB1 antibody (Santa Cruz) was detected with a secondary anti-goat IgG peroxidase-conjugated antibody (BioRad Laboratories). The EphB2 and EphB4 antibodies were affinity-purified polyclonal antibodies to GST fusion proteins containing approximately 100 amino acids from the carboxy-terminal tails of the EphB2 or EphB4 receptors (Noren, N. K. et al. 2004 PNAS USA 101:5583-5588; Holash, J. A. & Pasquale, E. B. 1995 Devel Biol 172:683-693) and were detected with a secondary anti-rabbit IgG peroxidase-conjugated antibody (Amersham Biosciences).
Endogenous EphB receptors were isolated from lysates of mouse brain or cultured cells using the EWLS, SNEW, and TNYL peptides immobilized on streptavidin beads (FIGS. 5B, F, G and H). […] RTVA was used as a control peptide for the EphB4 pull downs. The NPVI peptide could isolate EphB4 from transfected cells but not endogenous EphB4 from MCF7 cells, which is present at lower levels (FIGS. 5B, F, G and H). […] EphB receptors were not detected bound to the beads coated with the other peptides.

[3] = system: EphB receptors; assay: Ephrin-B2 AP binding to different EphB ectodomains in presence of peptide (selectivity); conditions: 10 μM peptide
Description: Ephrin-B2 AP binding to the indicated immobilized EphB receptor ectodomains was measured in the presence of the indicated peptides and detected by measuring alkaline phosphatase activity. […] Wells coated with the different EphB ectodomains were incubated with ephrin-B2 AP and 50 μM of the indicated peptides. Ephrin-B2 AP binding in the presence of peptide was normalized to binding in the absence of peptide. All peptides were biotinylated except for FSPQ and EWYM. […] The EWYM, TWO, and FSPQ peptides were not synthesized with a biotin tag and therefore were tested directly for inhibition of ephrin-B2 binding.
Ephrin-B2 AP was co-incubated for 1 hr with different peptide concentrations in Ni-NTA wells coated with 1 μg/ml Eph receptor Fc. After several washes, the amount of ephrin-B2-AP bound was quantified using p-nitrophenylphosphate as a substrate. Alkaline phosphatase activity from wells without EphB Fc was subtracted as background. […] In these experiments, the two peptides are not biotinylated. […] Ephrin-B2-AP binding in the presence of peptide was normalized to binding in the absence of peptide in (A) and (B).

[4] = biological target: T2, EphB4; assay: Ephrin-B2 Fc-induced EphB4 tyrosine phosphorylation in breast cancer cells; format: cell-based; conditions: MCF7 cells
Description: Preincubation of COS cells with the SNEW peptide in a concentration-dependent manner blocked the ability of ephrin-B1 Fc to induce tyrosine phosphorylation, and therefore activation, of endogenous EphB2 (FIG. 4A). EphB2 was immunoprecipitated from COS cells after stimulation with ephrin-B1 Fc, or Fc as a control, in the presence of the indicated concentrations of SNEW peptide and control RTVA peptide. For EphB2 immunoprecipitations, COS cells were serum-starved in DME high glucose for 3 hrs prior to stimulation with 1 μg/ml ephrin-B1 Fc or Fc protein in the presence or absence of EphB2-binding peptides or a control peptide. […] After ephrin stimulation, the cells were lysed in modified RIPA buffer (150 mM NaCl, 1 mM EDTA, 1% Triton X-100, 1% Na deoxycholate, 0.1% SDS, 20 mM Tris pH 8.0) with protease inhibitors and 1 mM sodium orthovanadate. Cell lysates were used for immunoprecipitation with either 5 μg EphB2 antibodies or 10 μg EphB4 antibodies. […]
The GP motif aligns with the GP motif of TNYL and the RAW motif aligns precisely next to the last amino acid of TNYL. […] After several washes, the amount of ephrin-B2-AP bound was quantified using p-nitrophenylphosphate as a substrate. […]

[5] = Solubility in aqueous buffers; format: physicochemical
Description: To determine whether different phage clones target overlapping Eph receptor binding sites, the EWLS EphB1-binding peptide and the TNYL EphB4-binding peptide were chemically synthesized. […] Peptides were synthesized using Fmoc (N-(9-fluorenyl)methoxycarbonyl) chemistry and purified by high pressure liquid chromatography. Biotinylated peptides were synthesized with a carboxy-terminal GSGSK linker with biotin attached to the lysine side chain or with a carboxy-terminal GSGS sequence linked to a carboxy-terminal N-biotinyl-N′-Fmoc-ethylenediamine (Novabiochem). Matrix-assisted laser desorption ionization-time of flight mass spectrometry was used to verify proper peptide synthesis, and purity. Stock solutions of the peptides were dissolved in phosphate buffered saline (PBS, Irvine Scientific) and the pH was verified to be ˜6.5. […] Peptide concentrations were calculated based on (O)280.

[6] = system: Eph receptor Fc proteins; assay: Immobilized biotinylated peptides capturing Eph receptor Fc proteins on streptavidin plates; format: binding; conditions: for Eph receptor binding selectivity of immobilized biotinylated peptide: A- and B-class Eph receptor Fc proteins
Description: To measure the specificity of peptide binding to Eph receptors, biotinylated peptides were immobilized on streptavidin-coated plates at 10 μM (Pierce Biotechnology, Rockford, Ill.) and incubated for 1 hr with different Eph ectodomain Fc fusion proteins at 2.5 μg/ml in binding buffer. Bound receptor was detected using an anti-Fc antibody coupled to alkaline phosphatase (Promega) with p-nitrophenylphosphate as substrate (Pierce). The background that was subtracted from the measurements was determined by omitting the Eph ectodomain.
Biotinylated peptides were immobilized on streptavidin-coated plates and used to capture Eph receptor Fc proteins. Bound receptor was detected using anti-Fc antibody coupled to alkaline phosphatase and was normalized to the value in the well with highest receptor binding.

[7] = Peptide IC50: concentration of peptide required to inhibit ephrin-B2 AP binding by 50%, biotinylated synthetic peptides except EWYM and FSPQ

Compound: NPVIGPIQRAWT [SEQ ID NO 27]
Pull-down of endogenous EphB4 ([2]; MCF7 breast cancer cell line): did not detectably bind
Pull-down of transfected EphB4 ([2]; transfected 293T human embryonic kidney cells): bound the more highly expressed EphB4

Compound: TNYLFSPNGPIARAW [TNYL-RAW]
Selectivity of antagonism of ephrin-B2 AP binding across EphB ectodomains [3]: inhibits binding of ephrin-B2 AP to the immobilized EphB4 ectodomain but not other EphB ectodomains
Inhibition of basal EphB4 tyrosine phosphorylation [4]: inhibited
Inhibition of ephrin-B2 Fc-induced EphB4 tyrosine phosphorylation ([4]; concentration-dependent): inhibited in a concentration-dependent manner EphB4 tyrosine phosphorylation
IC50 ([1]; non-biotinylated peptide or dimeric ephrin-B2 Fc, read-out: IC50 for inhibition of ephrin-B2 AP binding to EphB4): ~0.015 µM

Compound: SEQ ID NO 14: 12-mer from EphB2 panning; printed SHW[image]ISPYSLLS (SHWPISPYSLLS)
Eph receptor binding selectivity of immobilized biotinylated peptide [6]: less specific

Compound: SEQ ID NO 34: 12-mer from EphB4 panning; printed IPWTQ[image]MAMSPM (IPWTQHMAMSPM)
Capture of the EphB ectodomain used for isolation by immobilized biotinylated peptide ([6]; EphB4): failed to bind

Compound: CC[C@H](C)[C@H](NC(=O)[C@@H]1CCCN1C(=O)CNC(=O)[C@H](CC(N)=O)NC(=O)[C@@H]1CCCN1C(=O)[C@H](CO)NC(=O)[C@H](Cc1ccccc1)NC(=O)[C@H](CC(C)C)NC(=O)[C@H](Cc1ccc(O)cc1)NC(=O)[C@H](CC(N)=O)NC(=O)[C@@H](N)[C@@H](C)O)C(=O)N[C@@H](C)C(=O)O [SEQ ID NO 24]
IC50 [1, 7]: ~50 µM
IC50 ([1]; non-biotinylated peptide, read-out: IC50 for inhibition of ephrin-B2 AP binding): 150 µM and ~150 µM

Other lines, results leading:

IC50 [1, 7]: ~200 µM
Compound: DHNHNLYNPWRL [SEQ ID NO 21]

Solubility in aqueous buffers [5]: low solubility
Compound: CC[C@H](C)[C@H](NC(=O)[C@H](C)NC(=O)[C@H](Cc1ccccc1)NC(=O)[C@@H]1CCCN1C(=O)[C@H](CCC(=O)O)NC(=O)[C@@H](NC(=O)[C@@H](NC(=O)[C@H](Cc1c[nH]c2ccccc12)NC(=O)[C@H](Cc1c[nH]cn1)NC(=O)[C@@H](N)Cc1c[nH]c2ccccc12)[C@@H](C)O)[C@@H](C)CC)C(=O)N[C@H](C(=O)N[C@@H](CO)C(=O)O)[C@@H](C)O [SEQ ID NO 8]

Eph receptor binding selectivity of immobilized biotinylated peptide [6]: less specific
Compound: SEQ ID NO 10: 12-mer from EphB2 panning; printed DHWRI[image]PFSLSS (DHWRILPFSLSS)
